Test results: PMC9064011 (RSC Advances, 2019)

Experiments:
MCF-7 cells = assay: MTT assay for tumor cell growth inhibition, MCF-7; type: cell-based; conditions: Homo sapiens, MCF7, 48 h, read-out: IC50 MCF-7
L-O2 cells = assay: MTT assay for cell growth inhibition, L-O2; type: cell-based; conditions: Homo sapiens, L02, 48 h, read-out: IC50 L-O2
HeLa cells = assay: MTT cell growth inhibition; type: cell-based; conditions: Homo sapiens
HepG2 cells = assay: MTT assay for tumor cell growth inhibition, HepG2; type: cell-based; conditions: Homo sapiens, HepG2, 48 h, read-out: IC50 HepG2
[1] = system: Hypoxia Inducible Factor-1 (HIF-1) pathway; assay: cells; conditions: Homo sapiens, HeLa, 12 h, read-out: HRE IC50
[2] = system: Hypoxia Inducible Factor-1 (HIF-1) pathway; conditions: dual luciferase reporter system
[3] = system: hypoxia inducible factor-1 (HIF-1) transcription; conditions: dual luciferase reporter assay, previous work in our laboratory, ref unpublished; cited from earlier work
H322 cell = conditions: previous work in our laboratory, ref unpublished; cited from earlier work

| Structure (SMILES) | IC50 (MCF-7 cells) | IC50 (L-O2 cells) | GI50 (HeLa cells) | IC50 (HepG2 cells) | IC50 [1] | HIF inhibitory activity (in words) [2] | inhibitory activity on HIF-1 transcription [3] | cytotoxicity against H322 cell (H322 cell) |
| --- | --- | --- | --- | --- | --- | --- | --- | --- |
| COC(=O)c1c(C#Cc2ccc(OC)cc2)cccc1-c1ccc(OC)cc1 [Compound 1a, Methyl 4′-methoxy-3-((4-methoxyphenyl)ethynyl)-[1,1′-biphenyl]-2-carboxylate] | > 100 µM | > 100 µM | > 100 µM | > 100 µM | 5.41 ± 1.1 µM | – | – | – |
| COc1ccc(C#Cc2cccc(-c3ccc(OC)cc3)c2C(=O)O)cc1 [Compound 1b, 4′-Methoxy-3-((4-methoxyphenyl)ethynyl)-[1,1′-biphenyl]-2-carboxylic acid] | > 100 µM | > 100 µM | > 100 µM | > 100 µM | 20.7 ± 2.5 µM | – | – | – |
| COc1ccc(C#Cc2cccc(-c3ccc(OC)cc3)c2C(=O)c2ccc(OC)cc2)cc1 [Compound 1c, (4′-Methoxy-3-((4-methoxyphenyl)ethynyl)-[1,1′-biphenyl]-2-yl)(4-methoxyphenyl)methanone] | 7.18 ± 1.2 µM | – | 3.75 ± 0.2 µM | – | 2.36 ± 0.4 µM | – | – | – |
| COc1ccc(C(=O)c2c(C#Cc3ccc(O)cc3)cccc2-c2ccc(O)cc2)cc1 [Compound 1d, (4′-Hydroxy-3-((4-hydroxyphenyl)ethynyl)-[1,1′-biphenyl]-2-yl)(4-methoxyphenyl)methanone] | 51.2 ± 0.6 µM | 64 ± 1 µM | 44.81 ± 0.2 µM | 54.8 ± 1.9 µM | 9.52 ± 0.4 µM | – | – | – |
| O=c1oc(-c2ccc(O)cc2)cc2cccc(-c3ccc(O)cc3)c12 [Compound 1e, 3,8-Bis(4-hydroxyphenyl)-1H-isochromen-1-one] | 95.57 ± 0.4 µM | 92.5 ± 2 µM | 86.31 ± 0.5 µM | 55.5 ± 1.9 µM | 13.7 ± 0.4 µM | – | – | – |
| COC(=O)c1cc(C#Cc2ccc(OC)cc2)ccc1-c1ccc(OC)cc1 [Compound 2a, Methyl 4′-methoxy-4-((4-methoxyphenyl)ethynyl)-[1,1′-biphenyl]-2-carboxylate] | > 100 µM | > 100 µM | > 100 µM | > 100 µM | 18.3 ± 1.6 µM | – | – | – |
| COc1ccc(C#Cc2ccc(-c3ccc(OC)cc3)c(C(=O)O)c2)cc1 [Compound 2b, 4′-Methoxy-4-((4-methoxyphenyl)ethynyl)-[1,1′-biphenyl]-2-carboxylic acid] | > 100 µM | > 100 µM | > 100 µM | > 100 µM | 15.6 ± 1.6 µM | – | – | – |
| COc1ccc(C#Cc2ccc(-c3ccc(OC)cc3)c(C(=O)c3ccc(OC)cc3)c2)cc1 [Compound 2c, (4′-Methoxy-4-((4-methoxyphenyl)ethynyl)-[1,1′-biphenyl]-2-yl)(4-methoxyphenyl)methanone] | > 100 µM | > 100 µM | > 100 µM | > 100 µM | 39.9 ± 3.1 µM | – | – | – |
| COc1ccc(C(=O)c2cc(C#Cc3ccc(O)cc3)ccc2-c2ccc(O)cc2)cc1 [Compound 2d, (4′-Hydroxy-4-((4-hydroxyphenyl)ethynyl)-[1,1′-biphenyl]-2-yl)(4-methoxyphenyl)methanone] | 6.49 ± 0.1 µM | 7.83 ± 1.2 µM | 3.24 ± 0.1 µM | 24.99 ± 0.1 µM | 4.47 ± 0.6 µM | – | – | – |
| COc1ccc(C#Cc2ccc(-c3ccc(OC)cc3)c(C(O)(c3ccc(OC)cc3)c3ccc(OC)cc3)c2)cc1 [Compound 2e, (4′-Methoxy-4-((4-methoxyphenyl)ethynyl)-[1,1′-biphenyl]-2-yl)bis(4-methoxyphenyl)methanol] | > 100 µM | > 100 µM | > 100 µM | > 100 µM | 20.8 ± 0.8 µM | – | – | – |
| CCCCC(O)(c1ccc(OC)cc1)c1cc(C#Cc2ccc(OC)cc2)ccc1-c1ccc(OC)cc1 (stereo not shown) [Compound 2f, 1-(4′-methoxy-4-((4-methoxyphenyl)ethynyl)-[1,1′-biphenyl]-2-yl)-1-(4-methoxyphenyl)pentan-1-ol] | > 100 µM | > 100 µM | > 100 µM | > 100 µM | 1.89 ± 0.4 µM | – | – | – |
| COc1ccc(-c2ccc(C#Cc3ccc(O)cc3)cc2C(O)(c2ccc(OC)cc2)c2ccc(OC)cc2)cc1 [Compound 2g, 4-((2-(Hydroxybis(4-methoxyphenyl)methyl)-4′-methoxy-[1,1′-biphenyl]-4-yl)ethynyl)phenol] | 13 ± 0.7 µM | 16.4 ± 1.3 µM | 15.48 ± 0.1 µM | 15.1 ± 0.6 µM | 8.1 ± 1.4 µM | – | – | – |
| COc1ccc(C(O)(c2ccc(OC)cc2)c2cc(C#Cc3ccc(O)cc3)ccc2-c2ccc(O)cc2)cc1 [Compound 2h, 2′-(hydroxybis(4-methoxyphenyl)methyl)-4′-((4-hydroxyphenyl)ethynyl)-[1,1′-biphenyl]-4-ol] | 11.9 ± 0.5 µM | 10.6 ± 1.1 µM | 10.8 ± 0.3 µM | 11.8 ± 0.8 µM | 2.52 ± 0.4 µM | – | – | – |
| COc1ccc(C2(c3ccc(OC)cc3)c3cc(O)ccc3-c3ccc(C#Cc4ccc(O)cc4)cc32)cc1 [Compound 2i, 7-((4-Hydroxyphenyl)ethynyl)-9,9-bis(4-methoxy-phenyl)-9H-fluoren-2-ol] | 9.23 µM | 10.9 ± 1 µM | 7.58 ± 0.1 µM | 8.96 ± 0.4 µM | 5.55 ± 1.3 µM | – | – | – |
| COc1ccc(C(=C2C=CC(=O)C=C2)c2cc(C#Cc3ccc(O)cc3)ccc2-c2ccc(O)cc2)cc1 [Compound 2j, 4-((4′-Hydroxy-4-((4-hydroxyphenyl)ethynyl)-[1,1′-biphenyl]-2-yl)(4-methoxyphenyl)methylene)cyclohexa-2,5-dien-1-one] | 12.1 ± 0.1 µM | 11.1 ± 0.7 µM | 4.47 ± 0.5 µM | 11.6 ± 0.6 µM | – | little HIF inhibitory activity | – | – |
| Cc1ccc(-c2ccc(O)cc2)c(C(=C2C=CC(=O)C=C2)c2ccccc2)c1C#Cc1ccc(O)cc1 [selaginellin A] | – | – | – | – | – | – | displayed inhibitory activity | moderately cytotoxic |
| Cc1ccc(-c2ccc(O)cc2)c(C(=C2C=CC(=O)C=C2)c2ccc(O)cc2)c1C#Cc1ccc(O)cc1 [selaginellin B] | – | – | – | – | – | – | – | moderately cytotoxic |
